{
  "source": "patent US20240390349A1",
  "about": "“DOSING REGIMEN OF CAPSID INHIBITOR” (priority 2023, published 2024)",
  "key": {"HIV-1": {"test_system": "HIV-1", "test": "Efficacy of oral bridging (HIV-1 RNA, CD4), CAPELLA", "type": "in vivo, human", "conditions": "for Proportion of participants with HIV-1 RNA<50 copies/mL: suppressed at OB baseline", "source_text": "This Example describes analysis of oral LEN bridging administered during a Phase 2/3, global, randomized, placebo-controlled multicenter study of lenacapavir (LEN) together with an optimized background regimen (OBR) in people with HIV (PWH) with multidrug resistance (MDR) (to […] antiretroviral (ARV) medications from each of ≥3 of the 4 main classes) and who are failing their current regimen (defined as plasma HIV-1 RNA≥400 copies/mL).\nThis Example describes a Phase 2/3, global, randomized, placebo-controlled multicenter study of LEN together with an OBR in PWH with MDR (to ≥2 ARV medications from each of ≥3 of the 4 main classes) and who are failing their current regimen (defined as plasma HIV-1 RNA≥400 copies/mL). Participants required oral bridging if an SC injection of LEN was not administered within the protocol visit window.\nParticipants were enrolled in either of the following two cohorts: • Cohort 1: Randomized in a 2:1 ratio to receive oral LEN or placebo for 14 days starting on Day 1, while they continued their existing regimen; or • Cohort 2: Enrolled to receive oral LEN together with an OBR."}, "[1]": {"test": "Safety during oral bridging period, CAPELLA", "type": "in vivo"}, "HIV-1 (MT-4 cells)": {"test_system": "HIV-1 (MT-4 cells)", "test": "Inhibitory quotient 4 (4-fold in vitro protein-adjusted 95% effective concentration, MT-4 cells)", "type": "cell-based", "conditions": "4-fold in vitro protein binding-adjusted 95% effective concentration"}, "[2]": {"test": "Safety data from all completed and ongoing clinical studies of LEN", "type": "in vivo, human", "conditions": "oral doses up to 1800 mg", "procedure": "Lenacapavir has been administered orally at doses up to 1800 mg. […] Oral LEN was administered without regard to food."}, "[3]": {"test": "Safety during oral bridging, studies of Examples 4-5 together"}},
  "note": "Entries after “also recorded” stand apart in the source; their conditions may differ.",
  "data": [
    {"smiles": "CC(C)(C#Cc1ccc(-c2ccc(Cl)c3c(NS(C)(=O)=O)nn(CC(F)(F)F)c23)c([C@H](Cc2cc(F)cc(F)c2)NC(=O)Cn2nc(C(F)(F)F)c3c2C(F)(F)[C@@H]2C[C@H]32)n1)S(C)(=O)=O", "note": "[LEN, N—((S)-1-(3-(4-chloro-3-(methylsulfonamido)-1-(2,2,2-trifluoroethyl)-1H-indazol-7-yl)-6-(3-methyl-3-(methylsulfonyl)but-1-yn-1-yl)pyridin-2-yl)-2-(3,5-difluorophenyl)ethyl)-2-((3bS,4aR)-5,5-difluoro-3-(trifluoromethyl)-3b,4,4a,5-tetrahydro-1H-cyclopropa [3,4]cyclopenta [1,2-c]pyrazol-1-yl) acetamide]", "values": [
      {"measurement": "Mean (SD) change from oral bridging baseline in HIV-1 RNA", "setting": "HIV-1; OB baseline HIV-1 RNA<50, Week 20", "result": "−0.01 (0.096) log10 copies/mL"},
      {"measurement": "Mean (SD) baseline HIV-1 RNA", "setting": "HIV-1; OB baseline HIV-1 RNA<50 copies/mL", "result": "1.34 (0.121) log10 copies/mL"},
      {"measurement": "Percentage who achieved HIV-1 RNA<50 copies/mL", "setting": "HIV-1; OB baseline HIV-1 RNA≥50, Missing=Excluded, Week 10", "result": 27.3, "unit": "%"},
      {"measurement": "Percentage who achieved HIV-1 RNA<50 copies/mL", "setting": "HIV-1; OB baseline HIV-1 RNA≥50, Missing=Excluded, Week 20", "result": 50.0, "unit": "%"},
      {"measurement": "Percentage who achieved HIV-1 RNA<50 copies/mL", "setting": "HIV-1; OB baseline HIV-1 RNA≥50, Missing=Failure, Week 10", "result": 27.3, "unit": "%"},
      {"measurement": "Percentage who achieved HIV-1 RNA<50 copies/mL", "setting": "HIV-1; OB baseline HIV-1 RNA≥50, Missing=Failure, Week 20", "result": 40.0, "unit": "%"},
      {"measurement": "Mean (SD) change from oral bridging baseline in HIV-1 RNA", "setting": "HIV-1; OB baseline HIV-1 RNA≥50, Week 10", "result": "−0.58 (1.188) log10 copies/mL"},
      {"measurement": "Mean (SD) change from oral bridging baseline in HIV-1 RNA", "setting": "HIV-1; OB baseline HIV-1 RNA≥50, Week 20", "result": "−1.05 (0.867) log10 copies/mL"},
      {"measurement": "Mean (SD) baseline HIV-1 RNA", "setting": "HIV-1; OB baseline HIV-1 RNA≥50 copies/mL", "result": "3.43 (1.035) log10 copies/mL"},
      {"measurement": "Mean (SD) change from oral bridging baseline in CD4 cell count", "setting": "HIV-1; Week 10", "result": "−16 (114.2) cells/μL"},
      {"measurement": "Mean change from oral bridging baseline in CD4 percentage", "setting": "HIV-1; Week 10", "result": 0.2, "unit": "%"},
      {"measurement": "HIV-1 RNA of the 1 participant who did not maintain <50 copies/mL", "setting": "HIV-1; Week 10, missed 2 nonconsecutive oral doses, N74D", "result": 920, "unit": "copies/mL"},
      {"measurement": "HIV-1 RNA of the 1 participant who did not maintain <50 copies/mL", "setting": "HIV-1; Week 20", "result": 57, "unit": "copies/mL"},
      {"measurement": "Mean (SD) change from oral bridging baseline in CD4 cell count", "setting": "HIV-1; Week 20", "result": "12 (71.8) cells/μL"},
      {"measurement": "Mean change from oral bridging baseline in CD4 percentage", "setting": "HIV-1; Week 20", "result": 1.0, "unit": "%"},
      {"measurement": "Mean (SD) oral bridging baseline HIV-1 RNA", "setting": "HIV-1; all who received oral bridging", "result": "1.74 (0.947) log10 copies/mL"},
      {"measurement": "Percentage of participants with HIV-1 RNA<50 copies/mL", "setting": "HIV-1; all who received oral bridging, Missing=Excluded, Week 10", "result": 83.9, "unit": "%"},
      {"measurement": "Percentage of participants with HIV-1 RNA<50 copies/mL", "setting": "HIV-1; all who received oral bridging, Missing=Excluded, Week 20", "result": 91.4, "unit": "%"},
      {"measurement": "Percentage of participants with HIV-1 RNA<50 copies/mL", "setting": "HIV-1; all who received oral bridging, Missing=Failure, Week 10", "result": 83.9, "unit": "%"},
      {"measurement": "Percentage of participants with HIV-1 RNA<50 copies/mL", "setting": "HIV-1; all who received oral bridging, Missing=Failure, Week 20", "result": 84.2, "unit": "%"},
      {"measurement": "Mean (SD) change from oral bridging baseline in HIV-1 RNA", "setting": "HIV-1; all who received oral bridging, Week 10", "result": "-0.11 (0.597) log10 copies/mL"},
      {"measurement": "Mean (SD) change from oral bridging baseline in HIV-1 RNA", "setting": "HIV-1; all who received oral bridging, Week 20", "result": "−0.16 (0.476) log10 copies/mL"},
      {"measurement": "Virologic suppression during oral bridging (in words)", "setting": "HIV-1; majority of participants suppressed at OB baseline", "result": "remained virologically suppressed"},
      {"measurement": "Proportion of participants with HIV-1 RNA<50 copies/mL", "setting": "HIV-1; Missing=Excluded, OB Baseline", "result": "46/46 (100) %"},
      {"measurement": "Proportion of participants with HIV-1 RNA<50 copies/mL", "setting": "HIV-1; Missing=Excluded, OB Week 30", "result": "10/10 (100) %"},
      {"measurement": "Discontinuation of study drug due to a TEAE", "setting": "[1]", "result": "No participant discontinued study drug due to a TEAE"},
      {"measurement": "Participants with Grade 2 or higher TEAEs", "setting": "[1]", "result": 26.3, "unit": "%"},
      {"measurement": "Treatment-related asthenia", "setting": "[1]", "result": 1.8, "unit": "%"},
      {"measurement": "Treatment-related diarrhea", "setting": "[1]", "result": 3.5, "unit": "%"},
      {"measurement": "Treatment-related nausea", "setting": "[1]", "result": 1.8, "unit": "%"},
      {"measurement": "Grade 5 TEAE of death", "setting": "[1]; 1 participant, considered unrelated to study drug", "result": 1.8, "unit": "%"},
      {"measurement": "Participants with treatment-related TEAEs", "setting": "[1]; all Grade 1", "result": 3.5, "unit": "%"},
      {"measurement": "AE of death leading to discontinuation of the study", "setting": "[1]; one participant", "result": 1.8, "unit": "%"},
      {"measurement": "Changes from baseline in hematology and clinical chemistry", "setting": "[1]; oral bridging period", "result": "no clinically relevant changes from baseline in hematology and clinical chemistry parameters; also recorded: no clinically relevant changes from baseline in median values for hematology and clinical chemistry"},
      {"measurement": "Changes from baseline in vital signs", "setting": "[1]; oral bridging period", "result": "no clinically relevant changes from baseline in vital signs"},
      {"measurement": "Overall safety and tolerability of oral LEN", "setting": "[1]; oral bridging period", "result": "generally safe and well tolerated"},
      {"measurement": "Participants with Grade 1 TEAEs", "setting": "[1]; oral bridging period", "result": 22.8, "unit": "%"},
      {"measurement": "Participants with Grade 2 TEAEs", "setting": "[1]; oral bridging period", "result": 24.6, "unit": "%"},
      {"measurement": "TEAE COVID-19", "setting": "[1]; oral bridging period", "result": 7.0, "unit": "%"},
      {"measurement": "TEAE cough", "setting": "[1]; oral bridging period", "result": 5.3, "unit": "%"},
      {"measurement": "TEAE diarrhea", "setting": "[1]; oral bridging period", "result": 5.3, "unit": "%"},
      {"measurement": "TEAE upper respiratory tract infection", "setting": "[1]; oral bridging period", "result": 5.3, "unit": "%"},
      {"measurement": "Participants who experienced TEAEs", "setting": "[1]; oral bridging period, 57 participants", "result": 49.1, "unit": "%"},
      {"measurement": "Plasma concentration corresponding to inhibitory quotient 4 (IQ4)", "setting": "HIV-1 (MT-4 cells)", "result": 15.5, "unit": "ng/mL"},
      {"measurement": "Overall safety and tolerability", "setting": "[2]", "result": "generally safe and well tolerated at the intended exposures"},
      {"measurement": "Overall safety and tolerability of oral bridging LEN 300 mg weekly", "setting": "[3]; HTE and treatment-naive PWH", "result": "generally safe and well tolerated"},
      {"measurement": "Study drug-related SAEs", "setting": "[3]; oral bridging period", "result": "no study drug-related SAEs"}
    ]}
  ]
}
